The test system of one test is HAMP mRNA. The experiment in a line: HAMP mRNA induction by BMP6, BMP9 or IL-6 in hepatoma cells pre-treated with TNF-alpha (qRT-PCR). The following applies: TNF-alpha treatment. The test is classed as cell-based, human. On the procedure:
(§1) RNA extraction and cDNA synthesis were carried out by using either RNeasy kits with QIAshredder homogenization (both Qiagen) and the High capacity RNA-to-cDNA kit (Applied Biosystems), or by using the Cells-to-Ct kit (Applied Biosystems), all according to the manufacturers' protocols. qRT-PCR reactions were performed on an Applied Biosystems Fast 7500 Real-Time PCR System (Applied Biosystems). Gene expression was assessed using inventoried Taqman Gene Expression Assays (Applied Biosystems) (see table 4 for assay codes) with Taqman Gene Expression Master Mix (Applied Biosystems) following the manufacturer's instructions. cDNA was diluted in Nuclease-Free Water (Ambion) to achieve a final concentration of 1-3 ng/uL. Samples were run in duplicate and gene expression levels were quantified relative to glyceraldehyde-3-phosphate dehydrogenase (GAPDH) mRNA expression using the delta Ct method; in some cases relative expression was then quantified further by normalizing to the untreated controls (delta-delta Ct method).
(§2) The hepatoma cell line Hep3B were maintained in MMEM supplemented with 10% foetal calf serum (PAA), 2 mM glutamine, 100 U/mL penicillin, 0.1 mg/mL streptomycin (all Sigma). HuH7 and HuH7.5 cells were cultured in DMEM supplemented as above. HuH7.5 cells infected at a MOI of 0.02 or hepatoma cells pre-treated for 48 h with TNF-alpha at 20 ng/mL were incubated overnight with titrations of human recombinant BMP6 or BMP9, and in the case of TNF-alpha treated cells IL-6 (all R&D Systems). Titrations of TNF-alpha were applied for 48 h prior to RNA extraction. A neutralizing anti-TNF-alpha antibody (clone 1825), (R&D Systems) supplemented the culture medium of HCV infected HuH7.5 cells at 0.2 μg/mL and was added at each sub culture from 2 days post infection to the end of the infection course. Uninfected cells were cultured and treated in parallel with the HCV infected cells.

In test [1] the test system is BMP/SMAD signalling pathway. Briefly: HJV, SMAD6 and SMAD7 mRNA in uninfected hepatoma (Hep3B) cells incubated with TNF-alpha (qRT-PCR). The test is classed as cell-based, human. As for the experimental part:
as §1, §2

The subject of test [2] is SMAD1/5/8 phosphorylation. Briefly: Western blot of p-SMAD1/5/8 in Hep3B cells pre-treated with TNF-alpha and exposed to BMP6. The test is classed as cell-based, human. As for the experimental part: Hep3B cells were exposed to TNF-alpha at 20 ng/mL for 48 hours before the addition of BMP6 at an end concentration of 2 nM. Lysates were harvested at either 1 h or 18 h post addition of BMP6. Briefly, cells were trypsinised and lysed for 20 min on ice in NP40 1% buffer supplemented with protease inhibitors (Sigma) at 1:500 and phosphatase inhibitor cocktail 2 (Sigma) at 1:100. The lysates were spun at 4° C., 13,000 rpm for 5 minutes and the supernatants stored at −80° C. until the blot was performed. Briefly, the protein content of the lysates was normalised using the BCA assay (Pierce) and run on 12% SDS-PAGE mini gels. Gels were blotted onto nitrocellulose membranes (GE Healthcare) and then blocked for 1 hour at room temperature in PBS containing 5% (w/v) milk. Membranes were then probed overnight at 4° C. in TBS-TWEEN containing 5% (w/v) BSA with the following primary antibodies: mouse anti-beta-actin (loading control) (Sigma), mouse anti-rabbit IgG (negative control) (Dako), rabbit anti-pSMAD1/5/8 (Cell Signalling), or rabbit anti-H.Pylori (negative control) (Dako). […] Membranes were developed using ECL reagent (GE Healthcare), films were scanned using an AlphaScan (Alpha Innotech) running Epson Scan software (Seiko Epson), and band intensities were determined using ImageQuant5.2 (Molecular Dynamics).

Another test concerns HCV (Jc1 HCV strain). The experiment in a line: Antiviral experiments: HCV-RNA in supernatants and cells of HCV-infected HuH7.5 cells (qRT-PCR). It is filed as cell-based, hepatitis C virus. An excerpt:
The Jc1 HCV strain was produced as described previously (Reference 20). Briefly, HuH7.5 cells were transfected with Jc1 RNA by electroporation and supernatants harvested 14-20 days post transfection. HuH7.5 cells were infected at a multiplicity of infection (MOI) of 0.02 unless otherwise stated. Infection was allowed to proceed for 9-11 days at which point infection was greater than 90% as determined by immunofluorescence (also described in Reference 20).
5 day time course: cells infected as described above at a MOI of 0.02 for 2 h were plated and then immediately treated with BMP6 at the doses stated in the figures for the duration of the infection. 10 day time course: cells infected for 2 h were plated and incubated for 3 days. Cells were sub-cultured and BMP6 added at the stated doses. Additional doses of the same concentration were applied at further sub-culturing to maintain the dose. For both time courses, IFNa (PBL Biomedical Laboratories) was added at 1000 U overnight either at day 4 (5 day time course) or day 9 (10 day time course). Supernatant RNA extraction was performed using QIAamp viral RNA extraction kit and total cellular RNA was extracted using RNeasy kit (both Qiagen). cDNA was then transcribed using the Superscript III Reverse transcriptase (Invitrogen) (random hexamers), all according to the manufacturers' protocols. HCV-RNA levels were measured using qRT-PCR in a LightCycler 480 Real-Time PCR System (Roche). cDNA at 10-100 ng/uL was amplified using RC1 (5′ […] 3′ (SEQ ID NO:3)) and RC21(5′ […] 3′ (SEQ ID NO:4)) primers. Each reaction was run in duplicate. HCV-RNA levels were quantified using a standard curve derived from HCV Jc1 cDNA.

Test [3] concerns Influenza A Virus Strain PR8. The test is classed as cell-based. The following applies: infected HuH7 cells mixed 1:10 with uninfected, cultured 24 hours; compared with interferon alpha and beta; FIG. 2.
[4] abbreviates: 1 uM hepcidin peptide added 3 days after HCV inoculation, a further 7 days, FIG. 11.

Entries after “also recorded” stand apart in the source; their conditions may differ. No end group written: not given here.

For TNF-alpha, the “mean suppression of HAMP mRNA upregulation in response to BMP6” value with HAMP mRNA (FIG. 9b) was 16.8 fold. Moreover, the “mean suppression of HAMP mRNA upregulation in response to BMP9” value in the test on HAMP mRNA (FIG. 9c) was 4.3 fold. The “hepcidin response to IL-6” value in the test on HAMP mRNA (FIG. 10) was “blunted”. For the same molecule, the “HJV mRNA levels” value in test [1] (FIG. 5e) is “reduced”. Besides, in test [1] (FIG. 5f), the “SMAD6 mRNA” value was “increased” and the “SMAD7 mRNA” value is “increased”. For the same molecule, the “inhibition of SMAD1/5/8 phosphorylation stimulated by BMP6” value in test [2] (18 hr exposure to BMP6, TNF-alpha pre-treatment) was approximately 35%. Besides, the “p-SMAD1/5/8 after incubation with BMP6” value in test [2] (Hep3B cells, BMP6 for both 1 hr and 18 hr, FIG. 9a) is recorded as “reduced”.
With “hepcidin: hepcidin peptide, the iron regulatory hormone encoded by HAMP, added exogenously at 1 uM (DTHFPICIFCCGCCHRSKCGMCCKT; ends and bridges not checked; cysteine pairing not given here; UniProt P81172 60-84, looked up)”, in the test on HCV (Jc1 HCV strain) (setting [4]), the “HCV RNA in cells” value is given as “not significantly altered” and the “HCV RNA in supernatant” value is “not significantly altered”. Moreover, in the test on HCV (Jc1 HCV strain) (FIG. 11), the “effect on HCV replication” value is “No specific effect”.

B1: BMP6: human recombinant BMP6 (R&D Systems), a bone morphogenetic protein that stimulates the BMP/SMAD signalling pathway (protein, UniProt P22004 375-513, looked up)
Bone morphogenetic protein 6: SASSRRRQQSRNRSTQSQDVARVSSASDYNSSELKTACRKHELYVSFQDLGWQDWIIAPKGYAANYCDGECSFPLNAHMNATNHAIVQTLVHLMNPEYVPKPCCAPTKLNAISVLYFDDNSNVILKKYRNMVVRACGCH
As to B1, the “viral RNA in supernatants, established infection” value in the test with HCV (Jc1 HCV strain) (2 nM BMP6 added after 3 days of HCV replication, measured after a further 7 days) is given as “reduced modestly”; in the test with HCV (Jc1 HCV strain) (6 nM BMP6 added after 3 days of HCV replication, measured after a further 7 days), “reduced modestly”; in the test on HCV (Jc1 HCV strain) (10 days post-infection, 18 nM BMP6 for 7 days or IFNa overnight, FIG. 12c) it was “lower”. In the test with HCV (Jc1 HCV strain) (5 days post-infection, BMP6 at all doses for the duration of the infection, IFNa overnight, FIG. 12b), the “culture supernatant HCV RNA after 5 days” value is “significantly reduced; also recorded: significantly lower”. In addition, in the test with HCV (Jc1 HCV strain) (10 days post-infection, 18 nM BMP6 for 7 days or IFNa overnight, FIG. 12d), the “cellular HCV RNA, established infection” value is on record as “significantly reduced; also recorded: lower”. Moreover, the “accumulation of HCV RNA in culture supernatants over time” value in the test with HCV (Jc1 HCV strain) (BMP6 added immediately after infecting HuH7.5 cells, 5 day time course, FIG. 12a) is “severely restricted; also recorded: reduced”. For the same molecule, the “suppression of HCV growth” value in the test with HCV (Jc1 HCV strain) (in vitro live virus model, over 5 days) was “over 90%”. For the same molecule, the “spread of the Influenza virus (level of haemagglutinin)” value in test [3] is reported as “restricts spread of the Influenza virus”.
